Laboratory results: patent US10155754B2, “Substituted 2-imino-1,3-thiazolidin-4-ones as N-arachidonoylethanolamine cellular uptake inhibitors” (UNIVERSITAT BERN, priority 2014, dated 2018)

The molecules below were run on AEA cellular uptake (U937 cells) (assay: [3H]-AEA cellular uptake inhibition in U937 cells). Conditions: Homo sapiens, U-937, U937 cells, final 100 nM AEA with 0.5 nM [3H]-AEA, 15 min at 37° C.; read-out: AEA uptake IC50.
Type: cell-based
Protocol: [^3H]-AEA Cellular Uptake
Screening for AEA cellular uptake inhibition was performed in a semi-automated procedure: Pipetting and washing steps were performed by a Biomek3000 laboratory workstation. First, required amounts of U937 cells were centrifuged at 100×g for 5 min and resuspended in RPMI (37° C.) to a final concentration of 2×10^6 cells/mL. Then, 250 μL of cell suspension (0.5×10^6 cells per sample) were transferred into AquaSil™ silanized glass vials (Chromacol 1.1-MTV) in 96-well format. After addition of 5 μL vehicle (DMSO) or compounds the cells were incubated at 37° C. for 15 min. As positive controls OMDM-2 and UCM707 were used at 10 μM in each run. The ETI-T compounds were measured at up to 7 concentrations in triplicates from 100 pM-100 μM. After pre-incubation, a mixture of 0.5 nM [ethanolamine-1-^3H]-AEA, (60 Ci/mmol) and 99.5 nM of cold AEA (final 100 nM) was added and samples were incubated at 37° C. for another 15 min. The reaction was stopped by rapid filtration over UniFilter-96 GF/C filters (PerkinElmer) pre-soaked with PBS 0.25% BSA. Cells were washed three times with 100 μL ice-cold PBS buffer containing 1% fatty acid free BSA. After drying, 45 μL MicroScint 20 scintillation cocktail (PerkinElmer, Waltham, Mass., US) was added to the wells and the plate was sealed. Radioactivity was measured by liquid scintillation counting on a PerkinElmer Wallac Trilux MicroBeta 1450 during 2 min. Non-specific binding of [^3H]AEA (100 nM) to the glass vials was never higher than 10%. IC50 values were calculated by GraphPad® by non-linear regression using the built-in log(inhibitor) vs. response-variable slope (four parameters) function.

SMILES	IC50 [nM]
Cc1ccc(N2C(=O)/C(=C/c3ccc4c(c3)OCCO4)S/C2=N\c2ccc(F)cc2)cc1 [24_B_A, (2Z,5Z)-2-(4-fluorophenylimino)-5-((2,3-dihydrobenzo[b][1,4]dioxin-6-yl)methylene)-3-p-tolylthiazolidin-4-one]	176
COCc1cccc(/C=C2\S/C(=N\Cc3ccc(C(C)(C)C)cc3)N(c3ccccc3)C2=O)c1 [15_R_N, (2Z,5Z)-5-(3-(methoxymethyl)benzylidene)-2-(4-tert-butylbenzylimino)-3-phenylthiazolidin-4-one]	> 10000
CC(C)CN1C(=O)/C(=C/c2ccc3ncsc3c2)S/C1=N\c1ccc(F)cc1 [32_B_X, (2Z,5Z)-2-(4-fluorophenylimino)-5-((benzo[d]thiazol-6-yl)methylene)-3-isobutylthiazolidin-4-one]	993
CC(C)CN1C(=O)/C(=C/c2ccc3[nH]cnc3c2)S/C1=N\c1ccc(F)cc1 [04_B_X, (2Z,5Z)-5-((1H-benzo[d]imidazol-5-yl)methylene)-2-(4-fluorophenylimino)-3-isobutylthiazolidin-4-one]	578
COc1ccc(N2C(=O)/C(=C/c3ccc(CO)cc3)S/C2=N\Cc2ccccc2)cc1 [22_C_F, (2Z,5Z)-5-(4-(hydroxymethyl)benzylidene)-2-(benzylimino)-3-(4-methoxyphenyl)thiazolidin-4-one]	592
O=C1/C(=C/c2ccc(CO)cc2)S/C(=N\Cc2ccccc2)N1Cc1ccccc1 [22_C_C, (2Z,5Z)-5-(4-(hydroxymethyl)benzylidene)-3-benzyl-2-(benzylimino)thiazolidin-4-one]	10400
Cc1ccc(/N=C2\S/C(=C\c3ccc4c(c3)OCCO4)C(=O)N2CC(C)C)cc1 [24_A_X, (2Z,5Z)-2-(p-tolylimino)-5-((2,3-dihydrobenzo[b][1,4]dioxin-6-yl)methylene)-3-isobutylthiazolidin-4-one]	721
O=C1/C(=C/c2ccc3[nH]cnc3c2)S/C(=N\Cc2ccccc2)N1c1ccc(F)cc1 [04_C_B, (2Z,5Z)-5-((1H-benzo[d]imidazol-5-yl)methylene)-2-(benzylimino)-3-(4-fluorophenyl)thiazolidin-4-one]	861
Cc1ccc(/N=C2\S/C(=C\c3ccc(CO)cc3)C(=O)N2c2ccccc2)nc1 [22_D_N, (2Z,5Z)-5-(4-(hydroxymethyl)benzylidene)-2-(5-methylpyridin-2-ylimino)-3-phenylthiazolidin-4-one]	1450
O=C1/C(=C/c2ccc(CO)cc2)S/C(=N\Cc2ccccc2Cl)N1c1ccccc1 [22_T_N, (2Z,5Z)-2-(2-chlorobenzylimino)-5-(4-(hydroxymethyl)benzylidene)-3-phenylthiazolidin-4-one]	> 10000
O=C1/C(=C/c2ccccc2)S/C(=N\Cc2ccccc2)N1CCc1ccccc1 [23_C_O, (2Z,5Z)-5-benzylidene-2-(benzylimino)-3-phenethylthiazolidin-4-one]	1190
O=C1/C(=C/c2ccc3c(c2)OCCO3)S/C(=N\Cc2cccnc2)N1c1ccccc1 [24_S_N, (2Z,5Z)-2-((pyridin-3-yl)methylimino)-5-((2,3-dihydrobenzo[b][1,4]dioxin-7-yl)methylene)-3-phenylthiazolidin-4-one]	1430
COCc1cccc(/C=C2\S/C(=N\Cc3ccccc3)N(CCCc3ccccc3)C2=O)c1 [15_C_K, (2Z,5Z)-5-(3-(methoxymethyl)benzylidene)-2-(benzylimino)-3-(3-phenylpropyl)thiazolidin-4-one]	692
O=C1/C(=C/c2ccccc2)S/C(=N\c2ccccc2)N1CCCc1ccccc1 [23_N_K, (2Z,5Z)-5-benzylidene-2-(phenylimino)-3-(3-phenylpropyl)thiazolidin-4-one]	1120
CCCCN1C(=O)/C(=C/c2ccc(CO)cc2)S/C1=N\c1ccccc1 [22_N_G, (2Z,5Z)-5-(4-(hydroxymethyl)benzylidene)-3-butyl-2-(phenylimino)thiazolidin-4-one]	1090
Cc1ccc(/N=C2\S/C(=C\c3ccc4c(c3)OCCO4)C(=O)N2c2ccc(F)cc2)cc1 [24_A_B, (2Z,5Z)-5-(2,3-dihydro-1,4-benzodioxin-6-ylmethylene)-3-(4-fluorophenyl)-2-(p-tolylimino)thiazolidin-4-one]	138

Further lines, results first:

IC50 [nM]	SMILES
727	O=C1/C(=C/c2ccc3[nH]ccc3c2)S/C(=N\Cc2ccccc2)N1CCc1ccccc1 [03_C_O, (2Z,5Z)-5-((1H-indol-5-yl)methylene)-2-(benzylimino)-3-phenethylthiazolidin-4-one]
556	O=C1/C(=C/c2ccccc2)S/C(=N\Cc2ccccc2Cl)N1c1ccccc1 [23_T_N, (2Z,5Z)-2-(2-chlorobenzylimino)-5-benzylidene-3-phenylthiazolidin-4-one]
1620	O=C1/C(=C/c2ccc3c(c2)OCCO3)S/C(=N\CCCc2ccccc2)N1c1ccccc1 [24_K_N, (2Z,5Z)-2-(3-phenylpropylimino)-5-((2,3-dihydrobenzo[b][1,4]dioxin-7-yl)methylene)-3-phenylthiazolidin-4-one]
15600	COCc1cccc(/C=C2\S/C(=N\CCc3ccccc3)N(c3ccccc3)C2=O)c1 [15_U_N, (2Z,5Z)-5-(3-(methoxymethyl)benzylidene)-2-(phenethylimino)-3-phenylthiazolidin-4-one]
1590	Cc1ccc(/N=C2\S/C(=C\c3ccc4[nH]cnc4c3)C(=O)N2c2ccccc2)nc1 [04_D_N, (2Z,5Z)-5-((1H-benzo[d]imidazol-5-yl)methylene)-2-(5-methylpyridin-2-ylimino)-3-phenylthiazolidin-4-one]
509	O=C1/C(=C/c2ccc3[nH]ccc3c2)S/C(=N\CCc2ccccc2)N1c1ccccc1 [03_U_N, (2Z,5Z)-5-((1H-indol-5-yl)methylene)-2-(phenethylimino)-3-phenylthiazolidin-4-one]
564	O=C1/C(=C/c2ccc3[nH]ccc3c2)S/C(=N\c2ccccc2)N1CCCc1ccccc1 [03_N_K, (2Z,5Z)-5-((1H-indol-5-yl)methylene)-2-(phenylimino)-3-(3-phenylpropyl)thiazolidin-4-one]

Same assay, conditions: Homo sapiens, U-937, U937 cells, final 100 nM AEA with 0.5 nM [3H]-AEA, 15 min at 37° C.; read-out: AEA uptake inhibition IC50

SMILES	IC50 [nM]
C/N=C1\S/C(=C\c2ccc(OC)cc2)C(=O)N1c1ccccc1	6920
COc1ccc(/C=C2\S/C(=N\c3ccccc3)N(Cc3ccco3)C2=O)cc1	3180
CCCCN1C(=O)/C(=C/c2ccc(OC)cc2)S/C1=N\c1ccccc1	2270
Cc1ccc(/N=C2\S/C(=C\c3ccc(CO)cc3)C(=O)N2c2ccccc2)nc1 [drawing 143]	1450
O=C1/C(=C/c2ccc3[nH]cnc3c2)S/C(=N\c2ccccc2)N1Cc1ccco1	1840

Now from value to molecule:

IC50 [nM]	SMILES
1070	COc1ccc(/N=C2\S/C(=C\c3ccc4[nH]ccc4c3)C(=O)N2c2ccccc2)cc1 [drawing 150]
6700	COc1cncc(/C=C2\S/C(=N\c3ccccc3)N(c3ccccc3)C2=O)c1
180	O=C1/C(=C/c2ccccc2)S/C(=N\Cc2ccccc2)N1c1ccccc1 [drawing 130]
15600	COc1ccc(/C=C2\S/C(=N\c3ccccc3)N(c3ccccc3)C2=O)cn1
2340	COc1ccc(/N=C2\S/C(=C\c3ccccc3)C(=O)N2c2ccccc2)cc1
2300	O=C1/C(=C/c2ccc3cc[nH]c3c2)S/C(=N\c2ccccc2)N1c1ccccc1
5100	COc1ccc(/C=C2\S/C(=N\c3ccc(C)cc3)N(c3ccccc3)C2=O)cc1
2140	O=C1/C(=C/c2ccc3[nH]cnc3c2)S/C(=N\Cc2ccccc2)N1c1ccccc1
1590	Cc1ccc(/N=C2\S/C(=C\c3ccc4[nH]cnc4c3)C(=O)N2c2ccccc2)nc1 [drawing 146]
135	COc1ccc(/N=C2\S/C(=C\c3ccc(CO)cc3)C(=O)N2c2ccccc2)cc1 [drawing 140]
729	O=C1/C(=C/c2ccc(CO)cc2)S/C(=N\c2ccccc2)N1c1ccccc1 [drawing 121]
6600	COc1ccc(/C=C2\S/C(=N\c3ccccc3)N(c3ccccc3)C2=O)nc1
440	COc1ccc(/C=C2\S/C(=N\Cc3ccccc3)N(c3ccccc3)C2=O)cc1
5420	O=C1/C(=C/c2ccccc2)S/C(=N\c2ccccc2)N1Cc1ccccc1
677	CCCCN1C(=O)/C(=C/c2ccc3[nH]ccc3c2)S/C1=N\c1ccccc1
2730	Cc1ccc(/N=C2\S/C(=C\c3ccc4[nH]ccc4c3)C(=O)N2c2ccccc2)nc1

Same assay, conditions: U937 cells, final 100 nM AEA with 0.5 nM [3H]-AEA, 15 min at 37° C.; read-out: AEA uptake IC50

IC50 [nM]	SMILES
10500	CCCCCCCCCCCCN1C(=O)/C(=C/c2ccc(CO)cc2)S/C1=N\c1ccc(F)cc1 [23_A_V, (2Z,5Z)-5-(4-(hydroxymethyl)benzylidene)-2-(4-fluorophenylimino)-3-dodecylthiazolidin-4-one]
